Source: ChEMBL document CHEMBL1201862, “PubChem BioAssay data set” (2004)
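Values below derive from 48-hour exposures of cells grown in 96-well plates, with endpoints linearly interpolated between the two concentrations bracketing the appropriate inhibition level. GI50 is the concentration that inhibits growth by half.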 Active and inactive are the calls of the source. Rule as the data show it: active = GI50 up to about 1.1 µM and inactive = higher.

Assays:
Assay in all cases: growth of human tumour cells (NCI), 48 h
BT-549 = test system: BT-549
CCRF-CEM = test system: CCRF-CEM
COLO 205 = test system: COLO 205
HCT-15 = test system: HCT-15
HT-29 = test system: HT-29
LOX IMVI = test system: LOX IMVI
NCI-H23 = test system: NCI-H23
NCI-H522 = test system: NCI-H522
OVCAR-3 = test system: OVCAR-3
RXF 393 = test system: RXF 393
SK-MEL-2 = test system: SK-MEL-2
SK-MEL-5 = test system: SK-MEL-5
SK-OV-3 = test system: SK-OV-3
SNB-75 = test system: SNB-75
SW-620 = test system: SW-620
TK-10 = test system: TK-10
UACC-257 = test system: UACC-257
A498 = test system: A498
HL-60 = test system: HL-60
HOP-92 = test system: HOP-92

SMILES | GI50 (BT-549) | GI50 (CCRF-CEM) | GI50 (COLO 205) | GI50 (HCT-15) [µM] | GI50 (HT-29) | GI50 (LOX IMVI) | GI50 (NCI-H23) | GI50 (NCI-H522) | GI50 (OVCAR-3) | GI50 (RXF 393) | GI50 (SK-MEL-2) | GI50 (SK-MEL-5) | GI50 (SK-OV-3) | GI50 (SNB-75) | GI50 (SW-620) | GI50 (TK-10) | GI50 (UACC-257) | GI50 (A498) | GI50 (HL-60) | GI50 (HOP-92)
Cc1cc2c(nn1)CCc1c-2no[n+]1[O-] | > 100 µM (inactive) | > 100 µM (inactive) | > 100 µM (inactive) | > 100 | > 100 µM (inactive) | > 100 µM (inactive) | > 100 µM (inactive) | > 100 µM (inactive) | > 100 µM (inactive) | 22.1 µM (inactive) | 50.1 µM (inactive) | > 100 µM (inactive) | > 100 µM (inactive) | > 100 µM (inactive) | > 100 µM (inactive) | > 100 µM (inactive) | > 100 µM (inactive) |  |  | 
O=c1cc(NNc2ccc3ccccc3c2)[nH]c(=S)[nH]1 | 39.6 µM (inactive) |  | 23.2 µM (inactive) | 14.5 | 16.4 µM (inactive) | 13 µM (inactive) | > 100 µM (inactive) |  | 19.3 µM (inactive) |  |  | > 100 µM (inactive) |  |  | 18.2 µM (inactive) | > 100 µM (inactive) | > 100 µM (inactive) | > 100 µM (inactive) | 24.7 µM (inactive) | 28.1 µM (inactive)
Cc1ccc(S(=O)(=O)ON2C(=O)c3cccc4cc([N+](=O)[O-])cc(c34)C2=O)cc1 | 27 µM (inactive) |  | 81.5 µM (inactive) | 71 | 28.6 µM (inactive) | 32 µM (inactive) | > 100 µM (inactive) | 56.2 µM (inactive) | 35.3 µM (inactive) | 44.3 µM (inactive) | 84.5 µM (inactive) | 69.3 µM (inactive) | 38.9 µM (inactive) | 41.9 µM (inactive) | 66.1 µM (inactive) | 42.9 µM (inactive) | 66.2 µM (inactive) |  |  | 50.5 µM (inactive)
C/C(=N\NC(=S)Nc1ccc(Cl)cc1)c1nc2cccnc2[nH]1 | 1.76 µM (inactive) | 0.492 µM (active) | 4.07 µM (inactive) | 2.39 | 2.56 µM (inactive) | 1.23 µM (inactive) | 1.89 µM (inactive) | 6.89 µM (inactive) | 0.352 µM (active) |  | 10.5 µM (inactive) | 1.67 µM (inactive) | 4.31 µM (inactive) | 4.91 µM (inactive) | 4.93 µM (inactive) | 0.309 µM (active) | 2.28 µM (inactive) | 6.21 µM (inactive) | 0.818 µM (active) | 1.27 µM (inactive)
COc1ccc(C2C3=C(Nc4ncnn42)c2ccccc2OC3c2ccccc2)cc1 (stereo not drawn) | 5.26 µM (inactive) |  | 23.7 µM (inactive) | 17.4 |  | 61.8 µM (inactive) | 43.6 µM (inactive) |  | 27.8 µM (inactive) | 1.14 µM (inactive) | 6 µM (inactive) | 14.9 µM (inactive) | 37.5 µM (inactive) |  | 41.7 µM (inactive) |  | 70 µM (inactive) | 1.03 µM (active) | 2.27 µM (inactive) | 
COc1ccc(/C(C)=N/OC(=O)c2c(-c3ccccc3Cl)noc2C)cc1CN1CCOCC1 | 22.2 µM (inactive) | 66.7 µM (inactive) | 16.2 µM (inactive) | 26.5 | 18.3 µM (inactive) | 14.9 µM (inactive) | 32.6 µM (inactive) | 17.8 µM (inactive) | 21.7 µM (inactive) | 26.3 µM (inactive) | 16.4 µM (inactive) | 17.3 µM (inactive) | 29.4 µM (inactive) | 28.4 µM (inactive) | 43.1 µM (inactive) | 43.1 µM (inactive) | 17.9 µM (inactive) |  | 17.1 µM (inactive) | 24.2 µM (inactive)
CC(=O)Oc1ccc2cc(-c3ccc(OC(C)=O)c(OC(C)=O)c3)c(=O)oc2c1 | 42.3 µM (inactive) | 42.1 µM (inactive) | > 100 µM (inactive) | > 100 | > 100 µM (inactive) | > 100 µM (inactive) | > 100 µM (inactive) | 44.4 µM (inactive) | 18.4 µM (inactive) |  | > 100 µM (inactive) |  |  |  | > 100 µM (inactive) | 26.5 µM (inactive) | 97.9 µM (inactive) | 34.4 µM (inactive) | 30.5 µM (inactive) | 43.4 µM (inactive)
Cc1nc(C(N)=S)sc1C(=O)CC(=O)C(=O)Nc1c(C(C)C)cccc1C(C)C |  | 44.7 µM (inactive) | 43.3 µM (inactive) | 32.6 | 37.3 µM (inactive) | 49.3 µM (inactive) | 30.1 µM (inactive) | 18 µM (inactive) | 18.3 µM (inactive) | 20.3 µM (inactive) | 65.5 µM (inactive) | 54.6 µM (inactive) | 36 µM (inactive) | 25.2 µM (inactive) | 48.9 µM (inactive) | > 100 µM (inactive) | 60.4 µM (inactive) | 71 µM (inactive) | 28 µM (inactive) | 26.9 µM (inactive)
O=C(CN1CCCCC1)c1ccc2[nH]c(=O)oc2c1 | > 100 µM (inactive) | > 100 µM (inactive) | > 100 µM (inactive) | > 100 | > 100 µM (inactive) | > 100 µM (inactive) | > 100 µM (inactive) |  | > 100 µM (inactive) | > 100 µM (inactive) | > 100 µM (inactive) | > 100 µM (inactive) | > 100 µM (inactive) | 0.957 µM (active) | > 100 µM (inactive) | > 100 µM (inactive) | > 100 µM (inactive) | > 100 µM (inactive) | > 100 µM (inactive) | 
CN(C)CCNC(=O)c1cc([N+](=O)[O-])cc2ccc(-c3ccccc3)nc12 |  | 3.1 µM (inactive) | 6.05 µM (inactive) | 7.26 | 3.85 µM (inactive) | 7.03 µM (inactive) | 7.67 µM (inactive) | 3.85 µM (inactive) | 10.9 µM (inactive) | 6.04 µM (inactive) | 19.3 µM (inactive) | 4.7 µM (inactive) | 9.02 µM (inactive) | 5.64 µM (inactive) | 5.22 µM (inactive) | 22.2 µM (inactive) | 5.75 µM (inactive) | 3.78 µM (inactive) | 7.29 µM (inactive) | 10.5 µM (inactive)
C[C@H]1CC[C@@]2(NC1)O[C@H]1C[C@H]3[C@@H]4CC[C@H]5C[C@@H](O)CC[C@]5(C)[C@H]4CC[C@]3(C)[C@H]1[C@@H]2C | > 100 µM (inactive) | > 100 µM (inactive) | > 100 µM (inactive) | 42.7 | 47.9 µM (inactive) | 45.3 µM (inactive) | 85.5 µM (inactive) | 59.4 µM (inactive) | 54.2 µM (inactive) |  | > 100 µM (inactive) | 90.4 µM (inactive) | > 100 µM (inactive) | 57.5 µM (inactive) |  | > 100 µM (inactive) | > 100 µM (inactive) | 77.8 µM (inactive) | 51.1 µM (inactive) | 52.6 µM (inactive)
CCOC(=O)C(Cl)(NC(=O)c1ccc(F)cc1)C(F)(F)F (stereo not drawn) |  | > 100 µM (inactive) | > 100 µM (inactive) | > 100 | > 100 µM (inactive) | > 100 µM (inactive) | > 100 µM (inactive) | > 100 µM (inactive) | > 100 µM (inactive) | > 100 µM (inactive) | > 100 µM (inactive) | > 100 µM (inactive) | > 100 µM (inactive) | 77.3 µM (inactive) | > 100 µM (inactive) | > 100 µM (inactive) | > 100 µM (inactive) | > 100 µM (inactive) | > 100 µM (inactive) | > 100 µM (inactive)
O=C(CCCNc1nc(-c2ccccc2)cs1)c1cccs1 | > 100 µM (inactive) |  | > 100 µM (inactive) | > 100 | > 100 µM (inactive) | > 100 µM (inactive) | > 100 µM (inactive) | > 100 µM (inactive) | > 100 µM (inactive) |  | > 100 µM (inactive) | > 100 µM (inactive) | > 100 µM (inactive) | > 100 µM (inactive) | > 100 µM (inactive) | > 100 µM (inactive) | > 100 µM (inactive) |  |  | 
COC(=O)/C(=N/NC(N)=O)C(C(=O)OC)C(=O)C(=O)Nc1ccc(Cl)cc1 (stereo not drawn) |  | > 50.1 µM (inactive) | > 100 µM (inactive) | > 86.5 | > 100 µM (inactive) | > 83.2 µM (inactive) | > 100 µM (inactive) | > 100 µM (inactive) | > 100 µM (inactive) | > 100 µM (inactive) | > 100 µM (inactive) | > 100 µM (inactive) | > 100 µM (inactive) | > 100 µM (inactive) | > 100 µM (inactive) | > 100 µM (inactive) | > 100 µM (inactive) | > 100 µM (inactive) | > 76.2 µM (inactive) | > 100 µM (inactive)
COc1cc(C(C[N+](=O)[O-])SC(C)=O)ccc1OCc1ccccc1 (stereo not drawn) |  | 1.18 µM (inactive) | 5.24 µM (inactive) | 3.08 | 2.4 µM (inactive) | 1.43 µM (inactive) | 4.79 µM (inactive) | 0.345 µM (active) | 3.01 µM (inactive) | 1.69 µM (inactive) | 7.59 µM (inactive) | 9.04 µM (inactive) | 16.1 µM (inactive) | 11.4 µM (inactive) | 3.13 µM (inactive) | 6.35 µM (inactive) | 5.02 µM (inactive) | 7.57 µM (inactive) | 0.261 µM (active) | 18.9 µM (inactive)
Oc1cc(-c2ccc3ccccc3c2)nc2ncccc12 | 9.93 µM (inactive) | 7.64 µM (inactive) | 4.05 µM (inactive) | 4.18 | 4.16 µM (inactive) | 9.93 µM (inactive) | 10.7 µM (inactive) | 4.02 µM (inactive) |  |  | 4.95 µM (inactive) |  | 19.6 µM (inactive) | 11.5 µM (inactive) | 5.18 µM (inactive) | 19.8 µM (inactive) | 12.4 µM (inactive) | 7.23 µM (inactive) |  | 8.34 µM (inactive)
